Experimental findings from patent US20250346592A1 (Celgene Corporation, priority 2022, published 2025) are described below.

Structures are written as SMILES.

Chain of hPAD4 enzyme (Q9UM07 whole entry): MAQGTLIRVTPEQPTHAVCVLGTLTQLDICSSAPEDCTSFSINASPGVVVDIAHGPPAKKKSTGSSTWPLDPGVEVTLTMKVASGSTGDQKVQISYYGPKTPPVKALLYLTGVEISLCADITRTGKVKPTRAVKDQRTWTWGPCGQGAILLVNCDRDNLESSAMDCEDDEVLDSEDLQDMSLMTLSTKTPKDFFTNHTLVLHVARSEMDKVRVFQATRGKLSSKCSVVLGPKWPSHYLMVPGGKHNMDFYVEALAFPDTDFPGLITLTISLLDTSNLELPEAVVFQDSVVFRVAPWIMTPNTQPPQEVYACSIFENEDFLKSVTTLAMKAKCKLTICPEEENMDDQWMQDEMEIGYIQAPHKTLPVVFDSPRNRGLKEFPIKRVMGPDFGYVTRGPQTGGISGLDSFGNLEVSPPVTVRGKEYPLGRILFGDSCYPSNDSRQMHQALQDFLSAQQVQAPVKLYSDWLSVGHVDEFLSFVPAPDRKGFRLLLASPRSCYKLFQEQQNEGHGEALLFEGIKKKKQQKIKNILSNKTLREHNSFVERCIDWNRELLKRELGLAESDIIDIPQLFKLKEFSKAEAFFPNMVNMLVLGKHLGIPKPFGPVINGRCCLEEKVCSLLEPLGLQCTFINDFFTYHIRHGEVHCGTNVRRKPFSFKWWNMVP

The experiment has as its target hPAD4 enzyme (Homo sapiens (Human), UniProt Q9UM07). As to the kind of experiment: RFMS2 assay (RapidFire mass spectrometry, TSTGGRQGSHH peptide substrate). The class given is biochemical. As to conditions: 35 nM recombinant human PAD4, 500 μM TSTGGRQGSHH peptide, 30 minutes at room temperature; read-out: RFMS 2 IC50. Put shortly:
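Recombinant human PAD4 (35 nM) with 500 μM TSTGGRQGSHH peptide in HEPES pH 7.4, 200 mM NaCl, 2 mM CaCl2, 5 mM DTT, 1.2% DMSO, 30 min at room temperature; 3-fold compound series, top 20 μM. Quenched with formic acid; substrate and citrullinated product quantified by RapidFire MRM mass spectrometry for IC50.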
For `COCCn1c(-c2nc3cc4c(cc3n2C)CCN(C[C@@H](C)N)C4=O)cc2cccc(OC)c21` [Example 88, (R)-6-(2-aminopropyl)-2-(7-methoxy-1-(2-methoxyethyl)-1H-indol-2-yl)-1-methyl-1,6,7,8-tetrahydro-5H-imidazo[4,5-g]isoquinolin-5-one], the IC50 (as a rule, the point on the concentration scale where inhibition reaches its midpoint) is 101 to 500 nM.
Next, `Cc1cccc2cc(-c3nc4cc5c(cc4n3C)CCN(C[C@@H](C)N)C5=O)n(CC3CCC3)c12` [Example 89, (R)-6-(2-aminopropyl)-2-(1-(cyclobutylmethyl)-7-methyl-1H-indol-2-yl)-1-methyl-1,6,7,8-tetrahydro-5H-imidazo[4,5-g]isoquinolin-5-one]: 101 to 500 nM; `CCn1c(-c2nc3cc4c(cc3n2C)CCN(C[C@@H](C)N)C4=O)cc2cccc(OC)c21` [Example 90, (R)-6-(2-aminopropyl)-2-(1-ethyl-7-methoxy-1H-indol-2-yl)-1-methyl-1,6,7,8-tetrahydro-5H-imidazo[4,5-g]isoquinolin-5-one]: 101 to 500 nM; `COc1cccc2cc(-c3nc4cc5c(cc4n3C)CCN(C[C@@H](C)N)C5=O)n(CCOC3CC3)c12` [Example 91]: 101 to 500 nM.
Next, `C[C@@H](N)CN1CCc2cc3c(cc2C1=O)nc(-c1cc2ccccc2n1CC(C)(C)O)n3C` [Example 92, (R)-6-(2-aminopropyl)-2-(1-(2-hydroxy-2-methylpropyl)-1H-indol-2-yl)-1-methyl-1,6,7,8-tetrahydro-5H-imidazo[4,5-g]isoquinolin-5-one]: more than 1000 nM.
Next, `Cn1c(-c2cc3ccccc3n2Cc2ccno2)nc2cc3c(cc21)CCN(C[C@H](N)CF)C3=O` [Example 93, (S)-6-(2-amino-3-fluoropropyl)-2-(1-(isoxazol-5-ylmethyl)-1H-indol-2-yl)-1-methyl-1,6,7,8-tetrahydro-5H-imidazo[4,5-g]isoquinolin-5-one]: 101 to 500 nM.
For the compound `COCCn1c(-c2nc3cc4c(cc3n2C)CCN(C[C@H](N)CF)C4=O)cc2ccccc21` [Example 94, (S)-6-(2-amino-3-fluoropropyl)-2-(1-(2-methoxyethyl)-1H-indol-2-yl)-1-methyl-1,6,7,8-tetrahydro-5H-imidazo[4,5-g]isoquinolin-5-one], the IC50 is 501 to 1000 nM.
With `Cn1cc(Cn2c(-c3nc4cc5c(cc4n3C)CCN(C[C@H](N)CF)C5=O)cc3ccccc32)cn1` [Example 95, (S)-6-(2-amino-3-fluoropropyl)-1-methyl-2-(1-((1-methyl-1H-pyrazol-4-yl)methyl)-1H-indol-2-yl)-1,6,7,8-tetrahydro-5H-imidazo[4,5-g]isoquinolin-5-one] the figure was 501 to 1000 nM.
In the case of `Cn1nccc1Cn1c(-c2nc3cc4c(cc3n2C)CCN(C[C@H](N)CF)C4=O)cc2ccccc21` [Example 96, (S)-6-(2-amino-3-fluoropropyl)-1-methyl-2-(1-((1-methyl-1H-pyrazol-5-yl)methyl)-1H-indol-2-yl)-1,6,7,8-tetrahydro-5H-imidazo[4,5-g]isoquinolin-5-one], the IC50 was more than 1000 nM.
Consider `Cc1cc(Cn2c(-c3nc4cc5c(cc4n3C)CCN(C[C@H](N)CF)C5=O)cc3ccccc32)on1` [Example 97, (S)-6-(2-amino-3-fluoropropyl)-1-methyl-2-(1-((3-methylisoxazol-5-yl)methyl)-1H-indol-2-yl)-1,6,7,8-tetrahydro-5H-imidazo[4,5-g]isoquinolin-5-one], for which the IC50 was 101 to 500 nM.
In the case of `Cn1c(-c2cc3ccccc3n2Cc2ccon2)nc2cc3c(cc21)CCN(C[C@H](N)CF)C3=O` [Example 98, (S)-6-(2-amino-3-fluoropropyl)-2-(1-(isoxazol-3-ylmethyl)-1H-indol-2-yl)-1-methyl-1,6,7,8-tetrahydro-5H-imidazo[4,5-g]isoquinolin-5-one], the 50% inhibitory concentration (IC50) is more than 1000 nM.
With `Cc1nnc(Cn2c(-c3nc4cc5c(cc4n3C)CCN(C[C@H](N)CF)C5=O)cc3ccccc32)o1` [Example 99, (S)-6-(2-amino-3-fluoropropyl)-1-methyl-2-(1-((5-methyl-1,3,4-oxadiazol-2-yl)methyl)-1H-indol-2-yl)-1,6,7,8-tetrahydro-5H-imidazo[4,5-g]isoquinolin-5-one] the figure was more than 1000 nM; with `Cc1cc(Cn2c(-c3nc4cc5c(cc4n3C)CCN(C[C@H](N)CF)C5=O)cc3ccccc32)no1` [Example 100, (S)-6-(2-amino-3-fluoropropyl)-1-methyl-2-(1-((5-methylisoxazol-3-yl)methyl)-1H-indol-2-yl)-1,6,7,8-tetrahydro-5H-imidazo[4,5-g]isoquinolin-5-one], more than 1000 nM.
With `Cn1c(-c2cc3ccccc3n2CC2CCC2)nc2cc3c(cc21)CCN(C[C@H](N)CF)C3=O` [Example 101, (S)-6-(2-amino-3-fluoropropyl)-2-(1-(cyclobutylmethyl)-1H-indol-2-yl)-1-methyl-1,6,7,8-tetrahydro-5H-imidazo[4,5-g]isoquinolin-5-one] the figure was 101 to 500 nM; with `COCCn1c(-c2nc3cc4c(cc3n2C)CCN(C[C@H](N)CF)C4=O)cc2ccc(OC)cc21` [Example 103, (S)-6-(2-amino-3-fluoropropyl)-2-(6-methoxy-1-(2-methoxyethyl)-1H-indol-2-yl)-1-methyl-1,6,7,8-tetrahydro-5H-imidazo[4,5-g]isoquinolin-5-one], 501 to 1000 nM.
Next, `COCCn1c(-c2nc3cc4c(cc3n2C)CCN(C[C@H](N)CF)C4=O)cc2ccc(Cl)nc21` [Example 104, (S)-6-(2-amino-3-fluoropropyl)-2-(6-chloro-1-(2-methoxyethyl)-1H-pyrrolo[2,3-b]pyridin-2-yl)-1-methyl-1,6,7,8-tetrahydro-5H-imidazo[4,5-g]isoquinolin-5-one]: 501 to 1000 nM.
In the case of `COCCn1c(-c2nc3cc4c(cc3n2C)CCN(C[C@H](N)CF)C4=O)cc2ccc(OC)nc21` [Example 105, (S)-6-(2-amino-3-fluoropropyl)-2-(6-methoxy-1-(2-methoxyethyl)-1H-pyrrolo[2,3-b]pyridin-2-yl)-1-methyl-1,6,7,8-tetrahydro-5H-imidazo[4,5-g]isoquinolin-5-one], the IC50 is more than 1000 nM.
As to `COCCn1c(-c2nc3cc4c(cc3n2C)CCN(C[C@H](N)CF)C4=O)cc2cccnc21` [Example 106, (S)-6-(2-amino-3-fluoropropyl)-2-(1-(2-methoxyethyl)-1H-pyrrolo[2,3-b]pyridin-2-yl)-1-methyl-1,6,7,8-tetrahydro-5H-imidazo[4,5-g]isoquinolin-5-one], the IC50 is more than 1000 nM.
Next, `CCn1c(-c2nc3cc4c(cc3n2C)CCN(C[C@H](N)CF)C4=O)cc2cccc(OC)c21` [Example 107, (S)-6-(2-amino-3-fluoropropyl)-2-(1-ethyl-7-methoxy-1H-indol-2-yl)-1-methyl-1,6,7,8-tetrahydro-5H-imidazo[4,5-g]isoquinolin-5-one]: 501 to 1000 nM; `CCn1c(-c2nc3cc4c(cc3n2C)CCN(C[C@H](N)CF)C4=O)cc2ccc(OC)nc21` [Example 108, (S)-6-(2-amino-3-fluoropropyl)-2-(1-ethyl-6-methoxy-1H-pyrrolo[2,3-b]pyridin-2-yl)-1-methyl-1,6,7,8-tetrahydro-5H-imidazo[4,5-g]isoquinolin-5-one]: 501 to 1000 nM; `COc1cccc2cc(-c3nc4cc5c(cc4n3C)CCN(C[C@H](N)CF)C5=O)n(C(C)C)c12` [Example 109]: more than 1000 nM.
Next, `COCCn1c(-c2nc3cc4c(cc3n2C)CCN(C[C@H](N)CF)C4=O)cc2ccnc(OC)c21` [Example 110, (S)-6-(2-amino-3-fluoropropyl)-2-(7-methoxy-1-(2-methoxyethyl)-1H-pyrrolo[2,3-c]pyridin-2-yl)-1-methyl-1,6,7,8-tetrahydro-5H-imidazo[4,5-g]isoquinolin-5-one]: more than 1000 nM.
With `COc1cccc2cc(-c3nc4cc5c(cc4n3C)CCN(C[C@H](N)CF)C5=O)n(Cc3ccno3)c12` [Example 111, (S)-6-(2-amino-3-fluoropropyl)-2-(1-(isoxazol-5-ylmethyl)-7-methoxy-1H-indol-2-yl)-1-methyl-1,6,7,8-tetrahydro-5H-imidazo[4,5-g]isoquinolin-5-one] the figure was 11 to 100 nM; with `COc1ccc2cc(-c3nc4cc5c(cc4n3C)CCN(C[C@H](N)CF)C5=O)n(Cc3ccno3)c2c1` [Example 112, (S)-6-(2-amino-3-fluoropropyl)-2-(1-(isoxazol-5-ylmethyl)-6-methoxy-1H-indol-2-yl)-1-methyl-1,6,7,8-tetrahydro-5H-imidazo[4,5-g]isoquinolin-5-one], 101 to 500 nM; with `COc1cccc2cc(-c3nc4cc5c(cc4n3C)CCN(C[C@H](N)CF)C5=O)n(Cc3cn(C)cn3)c12` [Example 114, (S)-6-(2-amino-3-fluoropropyl)-2-(7-methoxy-1-((1-methyl-1H-imidazol-4-yl)methyl)-1H-indol-2-yl)-1-methyl-1,6,7,8-tetrahydro-5H-imidazo[4,5-g]isoquinolin-5-one], 501 to 1000 nM.
On to `COc1cccc2cc(-c3nc4cc5c(cc4n3C)CCN(C[C@H](N)CF)C5=O)n(Cc3cc[nH]n3)c12` [Example 115, (S)-2-(1-((1H-pyrazol-3-yl)methyl)-7-methoxy-1H-indol-2-yl)-6-(2-amino-3-fluoropropyl)-1-methyl-1,6,7,8-tetrahydro-5H-imidazo[4,5-g]isoquinolin-5-one], for which the IC50 lay within 101 to 500 nM.
Next, `COc1cccc2cc(-c3nc4cc5c(cc4n3C)CCN(C[C@H](N)CF)C5=O)n(Cc3nnco3)c12` [Example 116, (S)-2-(1-((1,3,4-oxadiazol-2-yl)methyl)-7-methoxy-1H-indol-2-yl)-6-(2-amino-3-fluoropropyl)-1-methyl-1,6,7,8-tetrahydro-5H-imidazo[4,5-g]isoquinolin-5-one]: 101 to 500 nM; `COc1cccc2cc(-c3nc4cc5c(cc4n3C)CCN(C[C@H](N)CF)C5=O)n(Cc3cnco3)c12` [Example 117, (S)-6-(2-amino-3-fluoropropyl)-2-(7-methoxy-1-(oxazol-5-ylmethyl)-1H-indol-2-yl)-1-methyl-1,6,7,8-tetrahydro-5H-imidazo[4,5-g]isoquinolin-5-one]: 101 to 500 nM.
